From patent publication US20140163082A1, “PYRAZOLYL COMPOUNDS FOR USE IN REVERSING REACTIVE GLIOSIS” (priority 2011, published 2014)

Key:
rMC-1 cells [1] = system: rMC-1 cells
rMC-1 cells [2] = experiment: GFAP immunofluorescence, rMC-1; assay type: cell-based; settings: for GFAP protein expression (immunofluorescence): vs hypoxic controls
Description: Cells were placed in airtight chambers [BioSpherix, Redfield, N.Y.] and the O2 tension was maintained at 1.2% by using Pro-Ox Model 110 O2 regulator [BioSpherix, Redfield, N.Y.]. The chamber was purged with a gas mixture of 5.32% CO2, and 93.48% N2. […] Müller cells [rMC-1] and […] cells [2×10^4 cells per well] were grown on 8-well chamber slides and cultured in 300 μl of their growing media, which contained YC-1 [25-100 μM] or DMSO [0.2% v/v] and incubated under normoxia or hypoxia for 48 hours at 37° C. YC-1 or DMSO was added 5 minutes prior to the hypoxic incubation. The cells were fixed 48 hours later with 3.7% paraformaldehyde and permeabilized with 0.2% TritonTM X-100 in PBS. The cells were incubated for two hours with anti-GFAP antibody. Negative control experiments consisted of omission of the primary antibody. Cells were then incubated with HRP-conjugate working solution, followed by the addition of the […] solution [TSA Kit#2 and #4 for rMC-1 and […] staining, respectively] at 1:100 dilutions [Molecular Probes, Carlsbad, Calif.]. Digitized images were acquired utilizing AxioVision software [Zeiss Axiovert 135 and AxioCam]. Intensity values of immunofluorescence staining of GFAP in rMC-1 and […] cells was analyzed and quantified using MetamorphTM imaging analysis software version 6.0 [Universal Imaging, Sunnyvale, Calif.]. The staining intensity in our series ranged from a weak blush to moderate or strong. The amount of cells staining with the antibody was further categorized as focal [<10%], patchy [10%-50%], and diffuse [>50%]. For semiquantitative analysis, focal and/or weak staining was considered equivocal staining, and patchy or diffuse staining was subcategorized as either moderate or strong.

rMC-1 cells [3] = experiment: Real time RT-PCR analysis, in vitro, rMC-1; assay type: cell-based
Description: A transformed Müller cell line [rMC-1] were grown in cell cultures in DMEM supplemented with 15% FBS, as well as with a fungicide mixture and 0.5% gentamicin in a humidified atmosphere of 5% CO2/95% air. Medium was changed every 2-3 days, and cells were grown to confluence in a 150-mm dish. Cells were split into 60-mm dishes and were used in the experiments when confluent. […] cells are immortalized rat retinal neurosensory/neuoroglial progenitor cells, by transfection with Adenovirus 12S E1A into the neonatal retinal tissue. […] cells express genes characteristic of neurons, as well as functional neuronal properties. […] cells were cultured in DMEM/F12 medium in a 1:1 mixture, supplemented with 5% FBS, 1.5 mM L-glutamine, 7.5 mM sodium pyruvate, 0.1 mM nonessential amino acids, 1×MEM, 0.37% sodium bicarbonate and 10 μg/ml gentamicin. Cells were incubated at 37° C. in the presence of 5% CO2. Human retinal microvascular endothelial cells [[…]][40,000 cells/well] were seeded in a 96-well plate and allowed to adhere overnight and incubated at 37° C. in normoxia. Cells were then cultured in 150 μl of CS-C medium supplemented with 10% FBS and in the presence of 1-100 μM YC-1 or DMSO [0.2%]. Cells were placed in airtight chambers [BioSpherix, Redfield, N.Y.] and the O2 tension was maintained at 1.2% by using Pro-Ox Model 110 O2 regulator [BioSpherix, Redfield, N.Y.]. The chamber was purged with a gas mixture of 5.32% CO2, and 93.48% N2. […] We used the primers summarized in [FIG. 6C] for RT-PCR. Gene-specific molecular beacons and primers were designed to encompass the genes of interest, with beacon's annealing site to overlap with the exon-exon junctions for additional specificity [Beacon Designer 6.0, Premier Biosoft International, Palo Alto, Calif., USA]. Threshold cycle [Ct] values for the different samples were utilized for the calculation of gene expression fold change using the formula 2 to the minus power of delta delta ct. Fold changes in the HIF-1, VEGF, PDGF-B, GFAP and iNOS gene relative to the β-actin endogenous control gene were determined by the following equation: fold change=2-Δ[ΔC T], where change in threshold cycle [ΔCT]=CT [gene of interest]-CT [β-actin] and Δ [ΔCT]=ΔCT [treated]-ΔCT [untreated].

[4] = rMC-1, 25 μM YC-1, hypoxia 48 hours
[5] = rMC-1, hypoxia 48 hours, YC-1 25-100 μM, vs DMSO-treated hypoxic cells

## OCc1ccc(-c2nn(Cc3ccccc3)c3ccccc23)o1 [YC-1, 3-(5′-hydroxymethyl-2′-furyl)-1-benzylindazole]
rMC-1 cells [1]
  cell viability (DAPI exclusion): comprised the majority of cells
rMC-1 cells [2]; [4]
  GFAP cytoplasmic staining pattern/intensity (immunofluorescence): weaker equivocal staining intensity
  GFAP staining vs DMSO-treated hypoxic controls (immunofluorescence): remarkable inhibition
rMC-1 cells [2]; rMC-1, 50 μM YC-1, hypoxia
  GFAP protein expression (immunofluorescence): significant inhibitory effects
rMC-1 cells [2]; rMC-1, 75 μM YC-1, hypoxia
  GFAP protein expression (immunofluorescence): significant inhibitory effects
rMC-1 cells [2]; rMC-1, 100 μM YC-1, hypoxia
  GFAP staining remaining in cytoplasm (immunofluorescence): few stained regions
rMC-1 cells [2]; rMC-1, hypoxia, dose-dependent fashion
  GFAP protein levels (quantified staining intensity, FIG. 11C): significantly reduced
rMC-1 cells [3]; [5]
  PDGF-B mRNA level: significant dose-dependent attenuations
  VEGF mRNA level: significant dose-dependent attenuations
  iNOS mRNA level: significant dose-dependent attenuations
rMC-1 cells [3]; rMC-1, hypoxia, YC-1 25-100 μM, vs DMSO-treated hypoxic cells, normalized to β-actin
  GFAP mRNA level: significant dose-dependent attenuations
rMC-1 cells [3]; rMC-1, pre- vs post-YC-1 treatment
  HIF-1α message level: no differences
